In one test the test system is respiring E.coli. Nature of the test: Flow microcalorimetry, p-t curves of respiring cells in glucose buffer. The note with it: for Effect on p-t curve / power output: Polymyxin B alone, concentration not stated, Fig. 15; for Effect on power: neomycin alone added to respiring E.coli, Fig. 16. The test is classed as cell-based. Here is the method:
For a typical calorimetric incubation the medium was passed through the calorimetric vessel at the same flow rate and temperature as those used in the experiment to establish a steady baseline deflection. The following operations then took place to a strict timetable. The liquid nitrogen stored ampoule was thawed at 38°C for 3 min and then stirred for 20 sec on a whirlimixer. The bacterial suspension (0.5-1.5ml) volumes was inoculated into the medium (100ml) two minutes after completion of thawing. A Gilson automatic pipette was used for inoculation. The calorimeter inlet flow-line was placed in the incubation medium 30 seconds after inoculation. The flowing incubation medium reached the calorimetric vessel two min after inlet flow-line insertion. At this time the recording of the p-t curves was started. Eight min after inoculation the outflow from the calorimeter was returned to the fermenter (after the "baseline" medium had run to waste but before the inoculated medium ran to waste) thus making a closed system. Aeration was started as soon as the inlet tube was inserted in the fermenter. Microbiological purity of the culture was checked by plating out a sample of the culture at the end of each incubation on nutrient agar (lab M).
The output of calorimetric experiments is a plot of power (energy evolution per unit of time) as a function of time. The unit of power (p) is the Watt (W) and the unit of time is the hour (h). In some experiments seconds (s) were used as time unit.
E.coli was suspended in 10% DMSO prior to freezing and the viable counts were for batch 1: pre-freeze: 4.0 ± 0.6_ x 10^10 cfu/ml and post -freeze 2.0 ± 0.44 x 10^10 cfu/ml and for batch 2: pre-freeze: 3.45 ± 0.58 x 10^10 cfu/ml and post-freeze 2.93 ± 0.43 x 10^10 cfu/ml. The freezing rate for both batches was 20°C/min the survival rate was 50% for batch 1 and 85% for batch 2. These differences may have been due to batch 1 being kept for 24h at 4°C before being frozen.
The respiration experiments were carried out in glucose buffer at different pH. The respiration curves obtained from batch 1 (inoculum 2 x 10^10 cfu/ml) and batch 2 Inoculum 3.2 x 10^10 cfu/ml) were essentially similar and a mean was used as a reference). The respiration experiments were carried out at pH 7 for polymyxin and Znbacitracin and at pH 8 for neomycin. No differences in p-t control curves could be observed at pH 7 or pH 8.
The p-t curves rose and reached a plateau as has been observed for respiration of yeasts and some 20 min later fell to a lower plateau value. Prior incubation of the cells in the buffered glucose for periods up to 20 min before presentation to the calorimeter could reduce or entirely remove this effect.

For the next test, the system named is Bacillus Pumilus. Nature of the test: Flow microcalorimetry, p-t curves of growing culture with antibiotics and mixtures. The class given is cell-based. From the text: To the vertical face of the vessel close to its base, equidistantly spaced around the circumference, ports were fitted for an oxygen electrode and for sampling/inoculation. The fermenter was closed with a flat flanged glass lid which had five ports accommodating respectively, gas inlet tube, gas exhaust (via air condenser), inlet and outlet flow-lines to and from the calorimeter. The fermenter and lid was sealed with a p.t.f.e. gasket and clamped with a metal clip. The fermenter was placed on a magnetic stirring unit in a water jacket which allowed circulation of the thermostatically controlled water at 30°C or 37°C. The fermenter which contained a Teflon coated magnetic stirring bar, was sterilised by autoclaving.
For a typical calorimetric incubation the medium was passed through the calorimetric vessel at the same flow rate and temperature as those used in the experiment to establish a steady baseline deflection. The following operations then took place to a strict timetable. The liquid nitrogen stored ampoule was thawed at 38°C for 3 min and then stirred for 20 sec on a whirlimixer. The bacterial suspension (0.5-1.5ml) volumes was inoculated into the medium (100ml) two minutes after completion of thawing. A Gilson automatic pipette was used for inoculation. The calorimeter inlet flow-line was placed in the incubation medium 30 seconds after inoculation. […]

Where [1] appears, read: POLB 6.3 ug/ml, respiration, pH 7.

For Polymyxin B [POLB], in the test on respiring E.coli (setting [1]), the “Observed effect on p-t curves” value is on record as “Reduced height of p-t curve initially” and the “Time of return of p-t curve to baseline” value was not above 1 h. For the same molecule, the “Effect on p-t curve / power output” value in the test on respiring E.coli (listed as Polymyxin B) was “reduced the initial peak height and thereafter the p-t curve returned to baseline”. Also, in the test on respiring E.coli (listed as polymyxin B), the “Effect on p-t curve / power output” value is recorded as “severe reduction in power output followed by a return to baseline”. For the same molecule, in the test with Bacillus Pumilus (20ug/ml POLB, bacterial concentration printed '0?' as % of p-t curve, pH 8.00), the “Time within which growth was inhibited completely” value is “Within 9 hours growth was inhibited completely”.
In turn, `NC[C@@H]1O[C@H](O[C@H]2[C@@H](O)[C@H](O[C@@H]3[C@@H](O)[C@H](N)C[C@H](N)[C@H]3O[C@H]3O[C@H](CN)[C@@H](O)[C@H](O)[C@H]3N)O[C@@H]2CO)[C@H](N)[C@@H](O)[C@@H]1O` [NEO, neomycin] displayed a Linear dose-response range in the test on respiring E.coli (NEO, respiration, pH 8) of 10 to 100 µg/mL. Moreover, the “Effect on heat output” value in the test with respiring E.coli (all concentrations of Neomycin, respiring E.coli) was “caused an increased heat output”. Moreover, the Effect on power entry in the test on respiring E.coli (listed as Neomycin) is recorded as “caused an increase in power output”; in the test on respiring E.coli (listed as neomycin), “caused an increase in power”. For the same molecule, the “Range of linear relationship between dose and the reciprocal of increase in response from the control curve” value in the test on respiring E.coli (neomycin, respiring E.coli) was in the range of 20 to 100 µg/mL. In addition, the “Effect on power output in growth studies” value with Bacillus Pumilus (concentration not given) was “increase in power output”.

For the origin of these results see patent EP1785723A1, “Micro calorimetric analysis of mammalian cell susceptibility to agents that affect cell growth, metabolism and immune response, and use of micro calorimetric analysis in a transplantation test” (Stratos Bio Ltd., priority 2005, dated 2007).
